Common to all, as to assay type: functional
The subject of experiment [1] is Streptococcus pneumoniae. Put plainly: Minimum inhibitory concentration required for antibacterial activity against Streptococcus pneumoniae CL 2883 strain.
Experiment [2] concerns Staphylococcus epidermidis. Put plainly: Minimum inhibitory concentration required for antibacterial activity against Staphylococcus epidermidis MB 5414 strain;value ranges from 0.25-0.5.
In experiment [3] the test system is Haemophilus influenzae. The experiment can be described thus: Minimum inhibitory concentration required for antibacterial activity against Haemophilus influenzae CL 1830 strain;value ranges from 8-16.
Experiment [4] deals with Klebsiella pneumoniae. The experiment can be described thus: Minimum inhibitory concentration required for antibacterial activity against Klebsiella pneumoniae MB 4005 strain;value ranges from 1-2.
The subject of experiment [5] is Escherichia coli. The experiment can be described thus: Minimum inhibitory concentration required for antibacterial activity against Escherichia coli MB 2884 strain;value ranges from 1-2.
Experiment [6] relates to Haemophilus influenzae. Put plainly: Minimum inhibitory concentration required for antibacterial activity against Haemophilus influenzae MB 5363 strain;value ranges from 0.5-2.
Experiment [7] concerns Staphylococcus aureus. Put plainly: Minimum inhibitory concentration required for antibacterial activity against Staphylococcus aureus MB 2865 strain;value ranges from 0.5-1.
Experiment [8] relates to Enterococcus faecalis. Put plainly: Minimum inhibitory concentration required for antibacterial activity against Enterococcus faecalis MB 5407 strain;value ranges from 4-8.
In experiment [9] the test system is Enterobacter cloacae. Put plainly: Minimum inhibitory concentration required for antibacterial activity against Enterobacter cloacae CL 4298 strain.
In experiment [10] the test system is Streptococcus pyogenes. The experiment can be described thus: Minimum inhibitory concentration required for antibacterial activity against Streptococcus pyogenes MB 2874 strain.
Experiment [11] relates to Enterobacter cloacae. Put plainly: Minimum inhibitory concentration required for antibacterial activity against Enterobacter cloacae CL 4298 strain;value ranges from 32-64.
The test system of experiment [12] is Escherichia coli. The experiment can be described thus: Minimum inhibitory concentration required for antibacterial activity against Escherichia coli MB 2884 strain;value ranges from 16-64.
Experiment [13] concerns Staphylococcus aureus. Put plainly: microbe, parasite or virus in culture.
The test system of experiment [14] is Staphylococcus epidermidis. Put plainly: Minimum inhibitory concentration required for antibacterial activity against Staphylococcus epidermidis MB 5414 strain.
Experiment [15] concerns Enterococcus faecalis. The experiment can be described thus: Minimum inhibitory concentration required for antibacterial activity against Enterococcus faecalis MB 5407 strain;value ranges from 1-2.
The subject of experiment [16] is Haemophilus influenzae. Put plainly: Minimum inhibitory concentration required for antibacterial activity against Haemophilus influenzae MB 5363 strain;value ranges from 2-4.
In experiment [17] the test system is Klebsiella pneumoniae. The experiment can be described thus: Minimum inhibitory concentration required for antibacterial activity against Klebsiella pneumoniae MB 4005 strain;value ranges from 32-64.
Experiment [18] has as its system Haemophilus influenzae. The experiment can be described thus: Minimum inhibitory concentration required for antibacterial activity against Haemophilus influenzae CL 1830 strain;value ranges from 64-128.
The test system of experiment [19] is Haemophilus influenzae. The experiment can be described thus: Minimum inhibitory concentration required for antibacterial activity against Haemophilus influenzae CL 1830 strain;value ranges from 4-16.
The test system of experiment [20] is Enterococcus faecalis. Put plainly: Minimum inhibitory concentration required for antibacterial activity against Enterococcus faecalis MB 5407 strain.
The subject of experiment [21] is Staphylococcus aureus. Put plainly: Minimum inhibitory concentration required for antibacterial activity against Staphylococcus aureus MB 2865 strain;value ranges from 0.25-1.
For experiment [22], the system named is Klebsiella pneumoniae. The experiment can be described thus: Minimum inhibitory concentration required for antibacterial activity against Klebsiella pneumoniae MB 4005 strain.
Experiment [23] has as its system Haemophilus influenzae. The experiment can be described thus: Minimum inhibitory concentration required for antibacterial activity against Haemophilus influenzae CL 1830 strain.
Experiment [24] has as its system Haemophilus influenzae. Put plainly: Minimum inhibitory concentration required for antibacterial activity against Haemophilus influenzae MB 5363 strain.
In experiment [25] the test system is Staphylococcus aureus. Put plainly: Minimum inhibitory concentration required for antibacterial activity against Staphylococcus aureus MB 2865 strain.
Experiment [26] has as its system Escherichia coli. Put plainly: Minimum inhibitory concentration required for antibacterial activity against Escherichia coli MB 2884 strain.
The subject of experiment [27] is Staphylococcus epidermidis. Put plainly: Minimum inhibitory concentration required for antibacterial activity against Staphylococcus epidermidis MB 5414 strain;value ranges from 16-128.
For experiment [28], the system named is Staphylococcus aureus. The experiment can be described thus: Minimum inhibitory concentration required for antibacterial activity against Staphylococcus aureus MB 2865 strain;value ranges from 32-64.

SMILES strings stand for the structures. ≈ marks a conversion by molar mass, not a printed value.

`CC[C@H]1OC(=O)[C@H](C)[C@@H](O[C@H]2C[C@@](C)(OC)[C@@H](O)[C@H](C)O2)[C@H](C)[C@@H](O[C@@H]2O[C@H](C)C[C@H](N(C)C)[C@H]2O)[C@](C)(O)C[C@@H](C)CN(C)[C@H](C)[C@@H](O)[C@]1(C)O` [AZITHROMYCIN]: the MIC was at most 0.06 µg/mL in experiment [1]; 0.25 µg/mL (≈ 0.334 µM) in experiment [2]; 8 µg/mL (≈ 10.7 µM) in experiment [3]; 1 µg/mL (≈ 1.34 µM) in experiment [4]; 1 µg/mL (≈ 1.34 µM) in experiment [5]; 0.5 µg/mL (≈ 0.668 µM) in experiment [6]. Moreover, the MIC in [7] was 0.5 µg/mL (≈ 0.668 µM); in experiment [8], 4 µg/mL (≈ 5.34 µM); in [9] it was 1 µg/mL (≈ 1.34 µM); in experiment [10] it was at most 0.06 µg/mL.

In the case of `CC[C@H]1OC(=O)[C@H](C)[C@@H](O[C@H]2C[C@@](C)(OC)[C@@H](O)[C@H](C)O2)[C@H](C)[C@@H](O[C@@H]2O[C@H](C)C[C@H](N(C)C)[C@H]2O)[C@](C)(O)C[C@@H](C)C(=O)[C@H](C)[C@@H](O)[C@]1(C)O` [ERYTHROMYCIN], the MIC in [11] was 32 µg/mL (≈ 43.6 µM); in [12] it was 16 µg/mL (≈ 21.8 µM); in [1], at most 0.06 µg/mL; in experiment [13], 0.125 µg/mL (≈ 0.17 µM); in experiment [14], 0.125 µg/mL (≈ 0.17 µM); in experiment [15], 1 µg/mL (≈ 1.36 µM). Further, the MIC was 2 µg/mL (≈ 2.73 µM) in experiment [16], 32 µg/mL (≈ 43.6 µM) in experiment [17], at most 0.06 µg/mL in experiment [10] and 64 µg/mL (≈ 87.2 µM) in experiment [18].

`CC[C@H]1OC(=O)[C@H](C)[C@@H](O[C@H]2C[C@@](C)(OC)[C@@H](O)[C@H](C)O2)[C@H](C)[C@@H](O[C@@H]2O[C@H](C)C[C@H](N(C)C)[C@H]2O)[C@](C)(O)C[C@@H](C)N(C)C[C@H](C)[C@@H](O)[C@]1(C)O` [L-701677]: the MIC is at most 0.06 µg/mL in experiment [1]; 0.25 µg/mL (≈ 0.334 µM) in experiment [2]; 4 µg/mL (≈ 5.34 µM) in experiment [19]; 2 µg/mL (≈ 2.67 µM) in experiment [20]; 1 µg/mL (≈ 1.34 µM) in [4]; 1 µg/mL (≈ 1.34 µM) in experiment [5]. Moreover, the MIC in experiment [6] was 0.5 µg/mL (≈ 0.668 µM); in experiment [21], 0.25 µg/mL (≈ 0.334 µM); in [9] it was 1 µg/mL (≈ 1.34 µM); in experiment [10], at most 0.06 µg/mL.

In the case of `CC[C@H]1OC(=O)[C@H](C)[C@@H](O[C@H]2C[C@@](C)(OC)[C@@H](O)[C@H](C)O2)[C@H](C)[C@@H](O[C@@H]2O[C@H](C)C[C@H](N(C)C)[C@H]2O)[C@](C)(O)C[C@@H](C)/N=C2/O[C@@]1(C)[C@H](O)[C@H]2C`, the MIC is above 128 µg/mL in experiment [22]; 4 µg/mL (≈ 5.47 µM) in [1]; above 128 µg/mL in [20]; above 128 µg/mL in [23]; 16 µg/mL (≈ 21.9 µM) in [14]; 64 µg/mL (≈ 87.6 µM) in experiment [24]. Also, the MIC in experiment [25] is 16 µg/mL (≈ 21.9 µM); in experiment [9], 128 µg/mL (≈ 175 µM); in experiment [10] it was 2 µg/mL (≈ 2.74 µM); in experiment [26], 128 µg/mL (≈ 175 µM).

As for `CC[C@H]1OC(=O)[C@H](C)[C@@H](O[C@H]2C[C@@](C)(OC)[C@@H](O)[C@H](C)O2)[C@H](C)[C@@H](O[C@@H]2O[C@H](C)C[C@H](N(C)C)[C@H]2O)[C@@]2(C)C[C@@H](C)N=C(O2)[C@H](C)[C@@H](O)[C@]1(C)O`, the MIC is above 128 µg/mL in [22]; 2 µg/mL (≈ 2.74 µM) in [1]; 16 µg/mL (≈ 21.9 µM) in [20]; above 128 µg/mL in [23]; 16 µg/mL (≈ 21.9 µM) in experiment [27]; 64 µg/mL (≈ 87.6 µM) in experiment [24]. Moreover, the MIC in experiment [28] amounted to 32 µg/mL (≈ 43.8 µM); in [9], 128 µg/mL (≈ 175 µM); in experiment [10], 0.5 µg/mL (≈ 0.684 µM); in experiment [26], 128 µg/mL (≈ 175 µM).

Consider `CC[C@H]1OC(=O)[C@H](C)[C@@H](O[C@H]2C[C@@](C)(OC)[C@@H](O)[C@H](C)O2)[C@H](C)[C@@H](O[C@@H]2O[C@H](C)C[C@H](N(C)C)[C@H]2O)[C@](C)(O)C[C@@H](C)NC(=O)[C@H](C)[C@@H](O)[C@]1(C)O`, for which the MIC in experiment [22] was 32 µg/mL (≈ 42.7 µM); in experiment [1], at most 0.06 µg/mL; in experiment [20] it was 8 µg/mL (≈ 10.7 µM); in [14], 0.5 µg/mL (≈ 0.668 µM); in [24], 32 µg/mL (≈ 42.7 µM); in [25] it was 0.5 µg/mL (≈ 0.668 µM). For the same compound, the MIC is at most 0.06 µg/mL in experiment [10] and 16 µg/mL (≈ 21.4 µM) in experiment [26].

`CC[C@H]1OC(=O)[C@H](C)[C@@H](O[C@H]2C[C@@](C)(OC)[C@@H](O)[C@H](C)O2)[C@H](C)[C@@H](O[C@@H]2O[C@H](C)C[C@H](N(C)C)[C@H]2O)[C@](C)(O)C[C@@H](C)NC[C@H](C)[C@@H](O)[C@]1(C)O`: the MIC in [22] was 4 µg/mL (≈ 5.44 µM); in experiment [1], at most 0.06 µg/mL; in [20], 4 µg/mL (≈ 5.44 µM); in experiment [23], 32 µg/mL (≈ 43.5 µM); in experiment [14] it was 0.5 µg/mL (≈ 0.68 µM); in experiment [24], 4 µg/mL (≈ 5.44 µM). Moreover, the MIC was 0.5 µg/mL (≈ 0.68 µM) in experiment [7], 4 µg/mL (≈ 5.44 µM) in experiment [9], at most 0.06 µg/mL in experiment [10] and 2 µg/mL (≈ 2.72 µM) in [26].

For the origin of these results see ChEMBL document CHEMBL1126507, “The synthesis of novel 8a-aza-8a-homoerythromycin derivatives via the beckmann rearrangement of (9z)-erythromycin a oxime” (1993).
